Read-outs that look alike come from different tables or passages of the source.
Columns and labels:
[1] = set-up: method as in ref 32, 33 = [32]; doi:10.1016/j.arabjc.2016.12.026; 32. Cabrera Pérez L.C. Gutiérrez Sánchez M. Mendieta Wejebe J.E. Hernández Rodríguez M. Fragoso Vázquez M.J. Salazar J.R. Correa Basurto J. Padilla Martínez I.I. Rosales Hernández M.C. Novel 5-aminosa || [33]; 33. Correa Basurto J. Rosales Hernández M.C. Mendieta Wejebe J.E. Trujillo Ferrara J.G. Padilla Martínez I.I. Ramírez Durán L.A. Alemán González Duhart D. Síntesis de un derivado del ácido 5-aminosali; details: 0.408 mM; cited from earlier work
[2] = Pharmacokinetic profiles after p.o., i.p. and i.v. administration; type: in vivo, Wistar rats; details: for absorption half-life: read-out: t1/2a, absorption half-life (converted); for Cmax: read-out: Cmax, maximum plasma concentration; for k el: read-out: Ke, elimination rate constant (converted); for MRT: read-out: MRT, mean residence time; for Tmax: read-out: tmax, time to maximum plasma concentration (converted); for Ka, absorption rate constant: non-compartmental
Procedure: On the same day as C1 administration, the rats (three groups, n = 6) were previously cannulated for compound administration by the p.o., i.p., and i.v. routes. A 24 G catheter was placed in the right lateral tail vein for blood collection. A first group of rats received a single dose of 50 mg/kg applied p.o. with a 20 G gavage needle. A dose of 75 mg/kg of C1 was injected i.p. into the rats in the second group. A single dose of 50 mg/kg was given i.v. to the third group by means of another catheter previously placed in the left lateral tail vein. The doses used in this study were selected based on previous pharmacokinetic studies reported in rats for 5-ASA [60] or for derivatives of this compound [61]. Animals were provided with the standard diet 4 h after dosing. […] The volume of blood removed was supplemented with an equal volume of 0.9% sodium chloride solution. The blood samples were centrifuged at 8000 rpm for 15 min to harvest 100 μL of plasma.
Plasma samples were processed immediately. Briefly, 450 µL of acetonitrile was added to 100 µL of plasma and vortexed for 5 min. Subsequently, 450 µL of methanol was added, and the sample was vortexed again, followed by centrifugation to precipitate the proteins. Finally, 10 µL of the supernatant were used for evaluation of the plasma concentration of C1 by RP-HPLC with the UV detection method, previously validated for the pharmacokinetic and complementary assays herein performed.
The plasma concentration–time data were plotted. […] Pharmacokinetic parameters of C1 were calculated on Kinetica 5.0 software (Adept Scientific Ltd), including the maximum plasma concentration (Cmax), time to maximum plasma concentration (tmax), elimination half-life (t1/2e), the area under the plasma concentration-time curve from time zero to the last measurable concentration (AUC0-t), the area under the plasma concentration-time curve from time zero to infinity (AUCtot), mean residence time (MRT), clearance (CL), and apparent volume of distribution (Vd).

[3] = Wistar, rat, plasma, ip, 75 mg/kg, i.p. 75 mg/kg, n = 6
[4] = Wistar, rat, plasma, ip, 75 mg/kg, plasma, i.p. 75 mg/kg, n = 6, read-out: Average Concentration
[5] = Wistar, rat, plasma, ip, 75 mg/kg, plasma, i.p. 75 mg/kg, individual rats, read-out: Concentration (µg/mL), Rat 1-6
[6] = Wistar, rat, plasma, ip, i.p. 75 mg/kg, rats
[7] = Wistar, rat, plasma, iv, 50 mg/kg, i.v. 50 mg/kg, n = 6
[8] = Wistar, rat, plasma, iv, 50 mg/kg, plasma, i.v. 50 mg/kg, n = 6, read-out: Average Concentration
[9] = Wistar, rat, plasma, iv, 50 mg/kg, plasma, i.v. 50 mg/kg, individual rats, read-out: Concentration (µg/mL), Rat 1-6
[10] = Wistar, rat, plasma, iv, i.v. 50 mg/kg, rats
[11] = Wistar, rat, plasma, po, 50 mg/kg, i.g. (p.o.) 50 mg/kg, n = 6
[12] = Wistar, rat, plasma, po, 50 mg/kg, plasma, i.g. (p.o.) 50 mg/kg, individual rats, read-out: Concentration (µg/mL), Rat 1-6
[13] = Wistar, rat, plasma, po, 50 mg/kg, plasma, i.g. (p.o.) 50 mg/kg, n = 6, read-out: Average Concentration
[14] = Wistar, rat, plasma, po, p.o. 50 mg/kg, rats
[15] = two-compartment model, Kinetica 5.0

O=C(/C=C(/Br)C(=O)O)Nc1ccc(O)c(C(=O)O)c1 [Compound C1, 5-{[(2E)-3-bromo-3-carboxyprop-2-enoyl]amino}-2-hydroxybenzoic acid]
reduction of the free radical DPPH [1]: about 90%
concentration at 5 min [2, 3]: 15900 ng/mL
concentration at 10 min [2, 3]: 17600 ng/mL
concentration at 30 min [2, 3]: 19900 ng/mL
concentration at 45 min [2, 3]: 17700 ng/mL
concentration at 60 min [2, 3]: 15200 ng/mL
concentration at 90 min [2, 3]: 11200 ng/mL
concentration at 120 min [2, 3]: 9000 ng/mL
concentration at 180 min [2, 3]: 5200 ng/mL
concentration at 240 min [2, 3]: 2900 ng/mL
absorption half-life ([2]; Wistar, rat, plasma, ip, 75 mg/kg, i.p. 75 mg/kg, rats): 1.3 ± 0.5 h
half-life ([2]; Wistar, rat, plasma, ip, 75 mg/kg, i.p. 75 mg/kg, rats, read-out: t1/2e, elimination half-life (converted)): 1.4 ± 0.2 h
concentration at 20 min [2, 4]: 19.8 µg/mL
concentration at 300 min [2, 5]: 0 µg/mL
concentration at 300 min [2, 4]: 0 µg/mL
concentration at 360 min [2, 5]: 0 µg/mL
concentration at 360 min [2, 4]: 0 µg/mL
concentration at 540 min [2, 5]: 0 µg/mL
concentration at 540 min [2, 4]: 0 µg/mL
concentration at 720 min [2, 5]: 0 µg/mL
concentration at 720 min [2, 4]: 0 µg/mL
Cmax [2, 6]: 22000 ± 1000 ng/mL
k el [2, 6]: 0.000139 s⁻¹
MRT [2, 6]: 3.1 ± 0.9 h
Tmax [2, 6]: 0.55 h
concentration at 5 min [2, 7]: 10500 ng/mL
concentration at 10 min [2, 7]: 7800 ng/mL
concentration at 30 min [2, 7]: 5300 ng/mL
concentration at 45 min [2, 7]: 4200 ng/mL
concentration at 60 min [2, 7]: 4000 ng/mL
concentration at 90 min [2, 7]: 3400 ng/mL
concentration at 120 min [2, 7]: 2200 ng/mL
concentration at 180 min [2, 7]: 1500 ng/mL
concentration at 240 min [2, 7]: 1400 ng/mL
half-life ([2]; Wistar, rat, plasma, iv, 50 mg/kg, i.v. 50 mg/kg, rats, read-out: t1/2e, elimination half-life (converted)): ~0.9 h
concentration at 20 min [2, 8]: 6 µg/mL
concentration at 300 min [2, 8]: 1.2 µg/mL
concentration at 360 min [2, 8]: 0.756 µg/mL
concentration at 540 min [2, 9]: 0 µg/mL
concentration at 540 min [2, 8]: 0 µg/mL
concentration at 720 min [2, 9]: 0 µg/mL
concentration at 720 min [2, 8]: 0 µg/mL
clearance ([2]; Wistar, rat, plasma, iv, i.v. 50 mg/kg, rats, read-out: CL, clearance): 24 ± 5 mL/min
C0 ([2]; Wistar, rat, plasma, iv, i.v. 50 mg/kg, rats, read-out: Cp^0, initial plasma concentration): 11000 ± 1900 ng/mL
k el [2, 10]: 0.000222 s⁻¹
MRT [2, 10]: 1.7 ± 0.4 h
Vd ([2]; Wistar, rat, plasma, iv, i.v. 50 mg/kg, rats, read-out: Vd, volume of distribution): 5.2 ± 0.9 L/kg
bioavailability ([2]; Wistar, rat, plasma, oral, 50 mg/kg, p.o. 50 mg/kg vs i.v. 50 mg/kg, rats, read-out: absolute oral bioavailability): ~77%
concentration at 5 min [2, 11]: 2200 ng/mL
concentration at 10 min [2, 11]: 2200 ng/mL
concentration at 30 min [2, 11]: 2500 ng/mL
concentration at 45 min [2, 11]: 2100 ng/mL
concentration at 60 min [2, 11]: 2100 ng/mL
concentration at 90 min [2, 11]: 1800 ng/mL
concentration at 120 min [2, 11]: 1500 ng/mL
concentration at 180 min [2, 11]: 1000 ng/mL
concentration at 240 min [2, 11]: 665 ng/mL
absorption half-life ([2]; Wistar, rat, plasma, po, 50 mg/kg, p.o. 50 mg/kg, rats): 1.4 ± 0.3 h
half-life ([2]; Wistar, rat, plasma, po, 50 mg/kg, p.o. 50 mg/kg, rats, read-out: t1/2e, elimination half-life (converted)): > 2.5 h
concentration at 20 min [2, 12]: 2.2 µg/mL
concentration at 20 min [2, 13]: 2.6 µg/mL
concentration at 300 min [2, 13]: 0.5 µg/mL
concentration at 360 min [2, 13]: 0.34 µg/mL
concentration at 540 min [2, 13]: 0.136 µg/mL
concentration at 600 min [2, 12]: 0 µg/mL
concentration at 600 min [2, 13]: 0 µg/mL
concentration at 720 min [2, 12]: 0 µg/mL
concentration at 720 min [2, 13]: 0 µg/mL
Cmax [2, 14]: 2800 ± 100 ng/mL
k el [2, 14]: 0.000111 s⁻¹
MRT [2, 14]: 1.7 ± 0.2 h
Tmax [2, 14]: 0.55 h
half-life ([2]; Wistar, rat, plasma, two-compartment model, Kinetica 5.0, read-out: elimination half-life α (t1/2α)): 0.267 h
half-life ([2]; Wistar, rat, plasma, two-compartment model, Kinetica 5.0, read-out: elimination half-life β (t1/2β) (converted)): 3 h
AUCtot, area under the plasma concentration-time curve from time zero to infinity ([2]; i.p. 75 mg/kg, rats): 2780 ± 69 µg·min/mL
Ka, absorption rate constant ([2]; i.p. 75 mg/kg, rats): 1.4 ± 0.2 h⁻¹
AUCtot, area under the plasma concentration-time curve from time zero to infinity ([2]; i.v. 50 mg/kg, rats): 806 ± 72 µg·min/mL
AUCtot, area under the plasma concentration-time curve from time zero to infinity ([2]; p.o. 50 mg/kg, rats): 618 ± 63 µg·min/mL
Ka, absorption rate constant ([2]; p.o. 50 mg/kg, rats): 0.9 ± 0.1 h⁻¹
t1/2e, elimination half-life ([2]; p.o. 50 mg/kg, rats, 50 mg/kg): 2.5 ± 0.6 h
K12 [2, 15]: 0.018 min⁻¹
K21 [2, 15]: 0.019 min⁻¹
α [2, 15]: 0.042 min⁻¹
